Measurements: article PMC5951806, “Rapid labelling and covalent inhibition of intracellular native proteins using ligand-directed N-acyl-N-alkyl sulfonamide” (Nature Communications, 2018)

Columns and labels:
[1] = target: GTP-binding nuclear protein RAN (RAN) (Homo sapiens, UniProt P62826); test: TMT LC-MSMS of 11-labelled proteins; format: cell-based
[2] = target: T1, ATP-citrate synthase (ACLY) (Homo sapiens, UniProt P53396); test: TMT LC-MSMS of 11-labelled proteins; format: cell-based
T1 sequence (P53396 1-1101): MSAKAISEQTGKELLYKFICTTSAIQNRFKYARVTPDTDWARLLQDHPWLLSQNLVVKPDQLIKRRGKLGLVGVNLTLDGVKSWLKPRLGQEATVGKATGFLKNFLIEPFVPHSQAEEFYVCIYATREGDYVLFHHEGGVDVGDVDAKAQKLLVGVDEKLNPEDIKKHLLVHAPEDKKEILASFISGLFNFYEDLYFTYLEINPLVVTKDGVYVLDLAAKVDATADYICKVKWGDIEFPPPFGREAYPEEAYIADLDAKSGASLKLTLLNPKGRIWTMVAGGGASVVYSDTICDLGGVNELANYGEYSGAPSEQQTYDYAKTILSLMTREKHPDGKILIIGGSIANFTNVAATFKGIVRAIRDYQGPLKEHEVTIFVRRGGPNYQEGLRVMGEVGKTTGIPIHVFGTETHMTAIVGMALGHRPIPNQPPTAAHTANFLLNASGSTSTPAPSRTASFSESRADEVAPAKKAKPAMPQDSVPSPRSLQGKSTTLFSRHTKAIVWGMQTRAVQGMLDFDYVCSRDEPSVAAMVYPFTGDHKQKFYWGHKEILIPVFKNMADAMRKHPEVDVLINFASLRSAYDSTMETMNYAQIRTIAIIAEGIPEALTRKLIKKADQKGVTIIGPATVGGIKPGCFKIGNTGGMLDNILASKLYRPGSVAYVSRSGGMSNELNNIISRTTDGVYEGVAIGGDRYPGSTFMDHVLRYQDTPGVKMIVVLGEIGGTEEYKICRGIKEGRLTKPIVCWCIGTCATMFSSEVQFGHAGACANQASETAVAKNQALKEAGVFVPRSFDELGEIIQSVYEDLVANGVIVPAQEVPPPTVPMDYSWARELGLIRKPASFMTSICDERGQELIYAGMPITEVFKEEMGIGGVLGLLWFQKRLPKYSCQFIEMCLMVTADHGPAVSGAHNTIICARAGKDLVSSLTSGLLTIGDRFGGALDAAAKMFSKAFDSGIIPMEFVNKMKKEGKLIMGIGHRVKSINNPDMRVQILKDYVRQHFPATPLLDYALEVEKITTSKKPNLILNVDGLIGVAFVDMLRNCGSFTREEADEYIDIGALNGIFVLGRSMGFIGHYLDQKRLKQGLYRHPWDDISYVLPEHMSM

[3] = sheet Merged, SKBR3 cells, 11 0.5 µM 3 h vs DMSO
[4] = sheet Merged, SKBR3 cells, 11 0.5 µM 3 h vs with PU-H71 10 µM

CC(=O)Oc1ccc2c(c1)Oc1cc(OC(C)=O)ccc1C21OC(=O)c2cc(C(=O)NCCOCCOCCNC(=O)CCCC(=O)N(CC#N)S(=O)(=O)c3ccc(C(=O)NCCCn4c(Sc5cc6c(cc5I)OCO6)nc5c(N)ncnc54)cc3)ccc21 [compound 11]
Abundance Ratio: (11) / (11 with PU-H71) ([1]; Exp3, RAN): 0.98
Abundance Ratio: (11) / (DMSO) ([1]; Exp3, RAN): 2.764
Abundances (Grouped): 11 ([1]; Exp3, RAN): 43.4
Abundances (Grouped): 11 with PU-H71 ([1]; Exp3, RAN): 44.3
Abundance Ratio: (11) / (DMSO) ([1]; sheet Exp1, SKBR3 cells, 11 0.5 µM 3 h vs DMSO): 2.108
Abundance Ratio: (11) / (11 with PU-H71) ([1]; sheet Exp1, SKBR3 cells, 11 0.5 µM 3 h vs with PU-H71 10 µM): 0.767
Abundance Ratio: (11) / (11 with PU-H71) ([1]; sheet Exp2, RAN): 0.778
Abundance Ratio: (11) / (DMSO) ([1]; sheet Exp2, RAN): 2.161
Abundances (Grouped): 11 ([1]; sheet Exp2, RAN): 78
Abundances (Grouped): 11 with PU-H71 ([1]; sheet Exp2, RAN): 100.3
Abundance Ratio: (11) / (DMSO) [1, 3]: 2.599
Abundance Ratio: (11) / (11 with PU-H71) [1, 4]: 0.946
Abundance Ratio: (11) / (11 with PU-H71) ([2]; Exp3, ACLY): 0.932
Abundance Ratio: (11) / (DMSO) ([2]; Exp3, ACLY): 2.236
Abundances (Grouped): 11 ([2]; Exp3, ACLY): 52.1
Abundances (Grouped): 11 with PU-H71 ([2]; Exp3, ACLY): 55.9
Abundance Ratio: (11) / (11 with PU-H71) ([2]; sheet Exp2, ACLY): 0.837
Abundance Ratio: (11) / (DMSO) ([2]; sheet Exp2, ACLY): 2.101
Abundances (Grouped): 11 ([2]; sheet Exp2, ACLY): 33.4
Abundances (Grouped): 11 with PU-H71 ([2]; sheet Exp2, ACLY): 39.9
Abundance Ratio: (11) / (DMSO) [2, 3]: 2.047
Abundance Ratio: (11) / (11 with PU-H71) [2, 4]: 0.851
